Test results published in US8791266B2, “Thyroid hormone β receptor agonist” (Mitsubishi Tanabe Pharma Corporation, priority 2009, dated 2014).

What was measured:
[1] = target: T1, Human Thyroid Hormone Receptor β1 (TRβ1) (Homo sapiens, UniProt P10828); assay: Transcription activation test of human thyroid hormone receptor β1 (luciferase reporter in 293T cells); type: cell-based; conditions: EC50 of transcription activation on TRβ1, 293T cells, luciferase activity after 24 hr; read-out: TRβ
T1 construct: expressed in transfected cells; host or cells: 293T cells
T1 sequence (P10828 1-461): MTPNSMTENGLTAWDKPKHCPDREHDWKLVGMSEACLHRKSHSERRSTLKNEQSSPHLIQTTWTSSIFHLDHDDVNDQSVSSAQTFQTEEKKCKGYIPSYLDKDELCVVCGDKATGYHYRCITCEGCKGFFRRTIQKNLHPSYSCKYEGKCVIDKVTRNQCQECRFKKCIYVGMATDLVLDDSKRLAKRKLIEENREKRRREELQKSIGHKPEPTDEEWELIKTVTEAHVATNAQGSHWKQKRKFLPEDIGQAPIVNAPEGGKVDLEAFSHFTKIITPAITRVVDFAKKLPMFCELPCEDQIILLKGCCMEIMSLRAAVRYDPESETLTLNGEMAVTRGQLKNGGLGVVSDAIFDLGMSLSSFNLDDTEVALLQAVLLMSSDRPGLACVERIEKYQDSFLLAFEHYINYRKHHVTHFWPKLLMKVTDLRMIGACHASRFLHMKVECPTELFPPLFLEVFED
Source text: (§1) Transcription Activation Test of Human Thyroid Hormone Receptors α1 (TRα1) and β1 (TRβ1)
(§2) pcDNA3.1 vector (manufactured by Invitrogen) that expresses TRα1 or β1 cloned from human liver-derived cells, and firefly luciferase expression vector pDR4-LuC (manufactured by Stratagene) having a thyroid hormone response sequence to be a reporter were transfected into 293T cells cultured in Dulbecco's modified Eagle medium (DMEM) containing 10% of activated carbon/dextran-treated fetal bovine serum (FBS) by using Lipofectamine2000 (manufactured by Invitrogen). After 16 hr, the cells were plated again in a 96 well plate, and the medium was exchanged with DMEM containing 0.1% activated carbon/dextran-treated FBS. After 3 more hr, a compound diluted with dimethyl sulfoxide solution was added, and the luciferase activity after 24 hr was measured.
(§3) As a positive control, 3,3′,5-triiodo-L-thyronine (T3), which is a biological ligand, was used. The transcription activation action of the compound on TRα1 and TRβ1 was shown by each EC50 value and the maximum luciferase activity value relative to the maximum luciferase activity value of T3 as 100.

[2] = target: T2, Human Thyroid Hormone Receptor α1 (TRα1) (Homo sapiens, UniProt P10827); assay: Transcription activation test of human thyroid hormone receptor α1 (luciferase reporter in 293T cells); type: cell-based; conditions: ratio TRα/TRβ of the transcription activation EC50 values
T2 construct: expressed in transfected cells; host or cells: 293T cells
T2 sequence (P10827 1-410 isoform P10827-2): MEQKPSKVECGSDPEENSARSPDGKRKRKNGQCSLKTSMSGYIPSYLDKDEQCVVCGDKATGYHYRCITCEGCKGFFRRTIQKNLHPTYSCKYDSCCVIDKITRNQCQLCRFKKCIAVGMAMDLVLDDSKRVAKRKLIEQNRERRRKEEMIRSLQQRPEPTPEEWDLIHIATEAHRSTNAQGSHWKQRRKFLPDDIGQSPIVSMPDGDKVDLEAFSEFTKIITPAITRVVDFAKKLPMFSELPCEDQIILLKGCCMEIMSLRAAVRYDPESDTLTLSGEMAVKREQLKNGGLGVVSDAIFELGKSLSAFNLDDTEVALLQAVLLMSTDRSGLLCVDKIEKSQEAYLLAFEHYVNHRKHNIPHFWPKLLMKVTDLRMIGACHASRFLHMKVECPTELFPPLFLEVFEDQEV
Source text: as §1, §2, §3

| EC50 [1] [nM] | selectivity (TRα/TRβ) [2] | Structure (SMILES) |
| --- | --- | --- |
| 0.2 | C (2>(TRα/TRβ)) | Cc1cc(OCc2noc(=O)[nH]2)cc(C)c1Cc1ccc(O)c(C2CCCCC2)n1 [Example 28, 3-({4-[(6-cyclohexyl-5-hydroxypyridin-2-yl)methyl]-3,5-dimethylphenoxy}methyl)-1,2,4-oxadiazol-5(4H)-one] |
| 2 | A (5<(TRα/TRβ)) | Cc1cc(OCc2noc(=O)[nH]2)cc(C)c1Cc1ccc(O)c(-c2ccc3ccccc3c2)n1 [Example 29, 3-[(4-{[5-hydroxy-6-(2-naphthyl)pyridin-2-yl]methyl}-3,5-dimethylphenoxy)methyl]-1,2,4-oxadiazol-5(4H)-one] |
| 2 | A (5<(TRα/TRβ)) | Cc1cc(OCc2noc(=O)[nH]2)cc(C)c1Cc1ccc(O)c(-c2ccc3c(c2)CCCC3)n1 [Example 30, 3-[(4-{[5-hydroxy-6-(5,6,7,8-tetrahydronaphthalen-2-yl)pyridin-2-yl]methyl}-3,5-dimethylphenoxy)methyl]-1,2,4-oxadiazol-5(4H)-one] |
| 0.2 | B (2<(TRα/TRβ)<5) | Cc1cc(OCc2noc(=O)[nH]2)c(C)c(C)c1Cc1ccc(O)c(C(C)C)n1 [Example 31, 3-({4-[(5-hydroxy-6-isopropylpyridin-2-yl)methyl]-2,3,5-trimethylphenoxy}methyl)-1,2,4-oxadiazol-5(4H)-one] |
| 0.4 | B (2<(TRα/TRβ)<5) | Cc1cc(OCc2noc(=O)[nH]2)c(C)c(C)c1Cc1ccc(O)c(C2CCCC2)n1 [Example 32, 3-({4-[(6-cyclopentyl-5-hydroxypyridin-2-yl)methyl]-2,3,5-trimethylphenoxy}methyl)-1,2,4-oxadiazol-5(4H)-one] |
| 8 | B (2<(TRα/TRβ)<5) | Cc1cc(OCc2noc(=O)[nH]2)c(C)c(C)c1Cc1ccc(O)c(C2CCCO2)n1 (centres unmarked) [Example 33, 3-[(4-{[5-hydroxy-6-(tetrahydrofuran-2-yl)pyridin-2-yl]methyl}-2,3,5-trimethylphenoxy)methyl]-1,2,4-oxadiazol-5(4H)-one] |
| 0.4 | B (2<(TRα/TRβ)<5) | Cc1cc(OCc2noc(=O)[nH]2)c(C)c(C)c1Cc1ccc(O)c(C2CCCCC2)n1 [Example 34, 3-({4-[(6-cyclohexyl-5-hydroxypyridin-2-yl)methyl]-2,3,5-trimethylphenoxy}methyl)-1,2,4-oxadiazol-5(4H)-one] |
| 9 | B (2<(TRα/TRβ)<5) | Cc1cc(OCc2noc(=O)[nH]2)c(C)c(C)c1Cc1ccc(O)c(C2CCCCO2)n1 (centres unmarked) [Example 35, 3-[(4-{[5-hydroxy-6-(tetrahydro-2H-pyran-2-yl)pyridin-2-yl]methyl}-2,3,5-trimethylphenoxy)methyl]-1,2,4-oxadiazol-5(4H)-one] |
| 3 | C (2>(TRα/TRβ)) | Cc1cc(OCc2noc(=O)[nH]2)c(C)c(C)c1Oc1ccc(O)c(C(C)C)n1 [Example 36, 3-({4-[(5-hydroxy-6-isopropylpyridin-2-yl)oxy]-2,3,5-trimethylphenoxy}methyl)-1,2,4-oxadiazol-5(4H)-one] |
| 0.1 | B (2<(TRα/TRβ)<5) | Cc1cc(OCc2noc(=O)[nH]2)c(F)c(C)c1Cc1ccc(O)c(C(C)C)n1 [Example 37, 3-({2-fluoro^-4-[(5-hydroxy-6-isopropylpyridin-2-yl)methyl]-3,5-dimethylphenoxy}methyl)-1,2,4-oxadiazol-5(4H)-one] |
| 4 | B (2<(TRα/TRβ)<5) | Cc1cc(CC(=O)O)c(C)c(C)c1Cc1ccc(O)c(C2CCCCC2)n1 [Example 41, {4-[(6-cyclohexyl-5-hydroxypyridin-2-yl)methyl]-2,3,5-trimethylphenyl}acetic acid] |
| 300 | B (2<(TRα/TRβ)<5) | Cc1cc(C(=O)O)c(C)c(C)c1Cc1ccc(O)c(C2CCCCC2)n1 [Example 42, 4-[(6-cyclohexyl-5-hydroxypyridin-2-yl)methyl]-2,3,5-trimethylbenzoic acid] |
| 200 | B (2<(TRα/TRβ)<5) | Cc1cc(OCC(=O)O)c(C#N)c(C)c1Cc1ccc(O)c(C2CCCCC2)n1 [Example 44, {2-cyano-4-[(6-cyclohexyl-5-hydroxypyridin-2-yl)methyl]-3,5-dimethylphenoxy}acetic acid] |
| 5 | A (5<(TRα/TRβ)) | Cc1nc(OCC(=O)O)c(C)c(C)c1Cc1ccc(O)c(C2CCCCC2)n1 [Example 45, ({5-[(6-cyclohexyl-5-hydroxypyridin-2-yl)methyl]-3,4,6-trimethylpyridin-2-yl}oxy)acetic acid] |
| 6 | A (5<(TRα/TRβ)) | Cc1cc(NC(=O)CC(=O)O)cc(C)c1Cc1ccc(O)c(C2CCCCCC2)n1 [Example 52, 3-({4-[(6-cycloheptyl-5-hydroxypyridin-2-yl)methyl]-3,5-dimethylphenyl}amino)-3-oxopropanoic acid] |
| 6 | A (5<(TRα/TRβ)) | Cc1cc(NC(=O)CC(=O)O)c(Cl)c(C)c1Cc1ccc(O)c(C2CCCCC2)n1 [Example 54] |
| 0.6 | A (5<(TRα/TRβ)) | Cc1cccc(-c2nc(Cc3c(C)cc(OCc4noc(=O)[nH]4)c(F)c3C)ccc2O)c1F [Example 60, 3-[(2-fluoro-4-{[6-(2-fluoro-3-methylphenyl)-5-hydroxypyridin-2-yl]methyl}-3,5-dimethylphenoxy)methyl]-1,2,4-oxadiazol-5(4H)-one] |
| 4 | B (2<(TRα/TRβ)<5) | Cc1cc(NCC(=O)O)c(C)c(C)c1Cc1ccc(O)c(C2CCCCC2)n1 [Example 62, N-{4-[(6-cyclohexyl-5-hydroxypyridin-2-yl)methyl]-2,3,5-trimethylphenyl}glycine] |
| 80 | B (2<(TRα/TRβ)<5) | Cc1cc(C(=O)NCC(=O)O)cc(C)c1Cc1ccc(O)c(C2CCCCC2)n1 [Example 64, N-{4-[(6-cyclohexyl-5-hydroxypyridin-2-yl)methyl]-3,5-dimethylbenzoyl}glycine] |
| 10 | A (5<(TRα/TRβ)) | Cc1cc(OCC(=O)O)c(C)c(C)c1Cc1cc(F)c(O)c(C2CCCCC2)n1 [Example 65, {4-[(6-cyclohexyl-4-fluoro-5-hydroxypyridin-2-yl)methyl]-2,3,5-trimethylphenoxy}acetic acid] |
| 0.2 | A (5<(TRα/TRβ)) | Cc1cc(OCC(=O)O)c(C)c(C)c1Cc1nc(C2CCCCC2)c(O)cc1F [Example 73, {4-[(6-cyclohexyl-3-fluoro-5-hydroxypyridin-2-yl)methyl]-2,3,5-trimethylphenoxy}acetic acid] |
| 100 | B (2<(TRα/TRβ)<5) | Cc1cc(OCC(=O)O)c(C)c(C)c1Cc1ccc(O)c(C(=O)N(C)CCc2ccccc2)n1 [Example 80] |
| 0.1 | B (2<(TRα/TRβ)<5) | Cc1cc(-c2cc(O)no2)c(C)c(C)c1Cc1ccc(O)c(C(C)C)n1 [Example 81, 6-[4-(3-hydroxyisoxazol-5-yl)-2,3,6-trimethylbenzyl]-2-isopropylpyridin-3-ol] |
| 1 | A (5<(TRα/TRβ)) | Cc1cc(OCC(=O)O)c(C)c(C)c1Cc1ccc(O)c(C2CCCCCC2)n1 [Example 92, {4-[(6-cycloheptyl-5-hydroxypyridin-2-yl)methyl]-2,3,5-trimethylphenoxy}acetic acid] |
| 10 | C (2>(TRα/TRβ)) | COc1c(OCc2noc(=O)[nH]2)cc(C)c(Cc2ccc(O)c(C3CCCCC3)n2)c1C [Example 107, 3-({4-[(6-cyclohexyl-5-hydroxypyridin-2-yl)methyl]-2-methoxy-3,5-dimethylphenoxy}methyl)-1,2,4-oxadiazol-5(4H)-one] |
